Tests used:
[1] = system: Shoot; test: Drug level in Triticum aestivum (wheat) shoots compound administered at rate of 14 mf/flat measured 24 hr post treatment by HPLC; type: ADME
[2] = system: Triticum aestivum; test: Effect on MDA content in Triticum aestivum (wheat) shoots compound administered at rate of 14 mf/flat measured 24 hr post treatment (reference value: 0.054 uM/L); type: functional
[3] = system: Shoot; test: Drug level in Triticum aestivum (wheat) shoots compound administered at rate of 14 mf/flat measured 144 hr post treatment by HPLC; type: ADME
[4] = system: Triticum aestivum; test: Effect on photosynthetic activity in Triticum aestivum (wheat) shoots assessed as leaf net photosynthesis rate measured by CO2 production compound administered at rate of 14 mf/flat measured 48 hr post treatment (reference value: 1.92 umol/m2/s); type: functional
[5] = system: Triticum aestivum; test: Reduction in glutathione S-transferase activity in Triticum aestivum (wheat) shoots compound administered at rate of 14 mf/flat measured 48 hr post treatment; type: functional; design: scale not given: the % may be the effect or the level left
[6] = system: Triticum aestivum; test: Increase in antioxidant enzyme system in Triticum aestivum (wheat) shoots assessed as increase in ascorbate peroxidase activity compound administered at rate of 14 mf/flat measured 24 hr post treatment; type: functional
[7] = system: Triticum aestivum; test: Effect on antioxidant enzyme system in Triticum aestivum (wheat) shoots assessed as dehydroascorbate reductase activity per mg protein compound administered at rate of 14 mf/flat measured 48 hr post treatment (reference value: 4.6 nmol/s per mg protein); type: functional
[8] = system: Triticum aestivum; test: Drug level in Triticum aestivum (wheat) compound administered at rate of 14 mf/flat measured 24 hr post treatment by HPLC; type: ADME, organism-based; settings: in vivo
[9] = system: Lolium multiflorum; test: Effect on antioxidant enzyme system in Lolium multiflorum (Italian ryegrass) shoots assessed as glutathione S-transferase activity per mg protein compound administered at rate of 14 mf/flat measured 48 hr post treatment (reference value: 0.37 nmol/s per mg protein); type: functional
[10] = system: Lolium multiflorum; test: Effect on antioxidant enzyme system in Lolium multiflorum (Italian ryegrass) shoots assessed as dehydroascorbate reductase activity per mg protein compound administered at rate of 14 mf/flat measured 48 hr post treatment (reference value: 3.7 nmol/s per mg protein); type: functional
[11] = system: Lolium multiflorum; test: Increase in MDA content in Lolium multiflorum (Italian ryegrass) shoots compound administered at rate of 14 mf/flat measured 24 hr post treatment; type: functional
[12] = system: Triticum aestivum; test: Effect on antioxidant enzyme system in Triticum aestivum (wheat) shoots assessed as glutathione reductase activity per mg protein compound administered at rate of 14 mf/flat measured 72 hr post treatment (reference value: 1.1 nmol/s per mg protein); type: functional
[13] = system: Lolium multiflorum; test: Increase in antioxidant enzyme system in Lolium multiflorum (Italian ryegrass) shoots assessed as increase in ascorbate peroxidase activity compound administered at rate of 14 mf/flat measured 72 hr post treatment; type: functional
[14] = system: Triticum aestivum; test: Effect on photosynthetic activity in Triticum aestivum (wheat) shoots assessed as dark respiration rate measured by CO2 production compound administered at rate of 14 mf/flat measured 72 hr post treatment (reference value: -1.07 umol/m2/s); type: functional
[15] = system: Triticum aestivum; test: Effect on photosynthetic activity in Triticum aestivum (wheat) shoots assessed as dark respiration rate measured by CO2 production compound administered at rate of 14 mf/flat measured 48 hr post treatment (reference value: -1.43 umol/m2/s); type: functional
[16] = system: Lolium multiflorum; test: Increase in antioxidant enzyme system in Lolium multiflorum (Italian ryegrass) shoots assessed as increase in dehydroascorbate reductase activity compound administered at rate of 14 mf/flat measured 48 hr post treatment; type: functional

Structure (SMILES) | Drug uptake [1] | Activity [2] | Drug uptake [3] | Activity [4] | Activity [5] | Activity [6] | Activity [7] | Drug uptake [8] | Activity [9] | Activity [10] | Activity [11] | Activity [12] | Activity [13] | Activity [14] | Activity [15] | Activity [16]
CCNc1nc(Cl)nc(NC(C)C)n1 [ATRAZINE] | 1.38 ppm | 0.55 µM | 0.35 ppm | 0.22 micromol/m2/s | 26% | 40% | 5.3 nmol/s/mg protein | 2.26 ppm | 0.46 nmol/s/mg protein | 3.6 nmol/s/mg protein | 25% | 1 nmol/s/mg protein | – | – | – | –
O=[N+]([O-])c1ccc(Oc2ccc(C(F)(F)F)cc2[N+](=O)[O-])cc1 [FLUORODIFEN] | 1.64 ppm | 0.05 µM | – | 2.13 micromol/m2/s | – | 46% | 5.1 nmol/s/mg protein | 0.44 ppm | 0.5 nmol/s/mg protein | 3.7 nmol/s/mg protein | – | 1 nmol/s/mg protein | 21% | -0.94 micromol/m2/s | -0.77 micromol/m2/s | 19%
